What was measured:
PD-L1 (CD274) = experiment: PD-L1 expression on Eμ-Myc lymphoma cell lines by flow cytometry (MFI) after in vitro treatment; type: cell-based, murine; conditions: for expression of PD-L1 (CD274) on lymphoma cells (MFI): 24 hours in vitro, vs DMSO
Procedure: (§1) […] lymphoma cells (5×10^5) were incubated in the presence of JQ1, or DMSO, in 500 μL culture media in a 48 well plates (Corning, N.Y.) prior to analysis of PD-L1/L2 expression by flow cytometry. Human RPMI-8226 and L540 cells (5×10^5) were incubated in the presence of JQ1, or DMSO vehicle, in 500 μL culture media in a 48 well plates (Corning, N.Y.). Additionally RPMI-8226 cells were cultured with 100 ng/ML, IFN-γ as a single agent and in combination with JQ1, prior to analysis of PD-L1/L2 expression by flow cytometry.
Cell suspensions were washed once with ice-cold flow cytometry buffer (2% FCS and 0.02% NaN3 in PBS) and resuspended in anti-CD16/32 monoclonal antibody (clone 2.4G2) on ice for 30 minutes to block Fc receptors. Cell suspensions were washed once with ice-cold flow cytometry buffer and stained on ice for 30 minutes with the following conjugated antibodies: anti-mouse CD3 (pacific blue, 1:400, clone 17A2), anti-mouse CD4 (APC, 1:400, clone RM4-5), anti-mouse CD8 (PE-Cy7, 1:400, clone 53-6.7), anti-mouse PD-1 (FITC, 1:400, clone J43), anti-mouse PD-L1 (PE, 1:100, clone MIH5), anti-mouse PD-L2 (Biotin, 1:200, clone TY25), anti-human PD-L1 (PE, 1:200, clone 29E.2A3), or anti-human PD-L2 (Biotin, 1:200, clone 24F.10C12). Biotinylated antibodies were subsequently incubated with Streptavidin-PE-Cy7 (1:1000, catalogue number 25-4317-82) or Streptavidin-Pacific Blue (1:1000, catalogue number 48-4317-82) for 30 minutes on ice. Anti-Armenian Hamster IgG (FITC, 1:400, catalogue number 554011), Mouse IgG2aκ (PE, 1:100, clone RTK2758), Rat IgG2aκ (Biotin, 1:200, clone eBR2a), Mouse IgG2bκ (PE, 1:200, catalogue number 559529), and Mouse IgG2aκ (Biotin, 1:200, clone eBM2a) were used as isotype control antibodies, respectively. All antibodies were purchased from BioLegend (San Diego, Calif.), eBiosciences (San Diego, Calif.), or BD Bioscience (San Diego, Calif.). Cell suspensions were washed once with ice-cold flow cytometry buffer, resuspended in ice-cold flow cytometry buffer containing 7-AAD (1:1000, BD Bioscience) and analyzed by flow cytometry. Data was collected on a LSR Fortessa flow cytometer (BD Biosciences) and analyzed using FlowJo Software, version 10.0.7 (Tree Star).
As described in FIGS. 2A and 2B, JQ1 downregulates the expression of PD-L1 (CD274) on lymphoma cells as determined by flow cytometry analysis. Graphs showing the mean fluorescence intensity (MFI) of PD-L1 on Eμ-Myc lymphoma cell lines (FIG. 2A) ^#4242 and (FIG. 2B) ^#299 over-expressing Bcl-2 following 24 hours treatment in vitro with indicated concentrations of JQ1, or DMSO control are provided. Representative data are presented as mean MFI of cells cultured and analyzed in triplicate±S.E.M. (****p <0.0001, Student's t test).
PD-L1 downregulation following BET inhibition is time-dependent. Flow cytometry analysis of PD-L1 expression on Eμ-Myc lymphoma cell line ^#6066 following treatment in vitro with 500 nM JQ1 or DMSO control for indicated time points was performed.
Chemically distinct bromodomain inhibitors downregulate the expression of PD-L1 (CD274) on lymphoma cells, as shown by flow cytometry. […] Representative data are presented as mean MFI of cells cultured and analyzed in triplicate±S.E.M. (***p<0.001, Student's t test).

Eμ-Myc lymphoma = experiment: Survival of mice bearing transplanted Eμ-Myc lymphoma (Kaplan-Meier); type: in vivo, mouse; conditions: 50 mg/kg daily i.p.
Procedure: (§2) Female C57BL/6 mice were purchased. C57BL/6.Rag2cγ^−/− mice were bred in house. C57BL/6.Rag1^−/− mice were purchased. For transplantation of Eμ-Myc lymphomas in vivo, cohorts of six- to eight-week-old syngeneic mice were inoculated via tail vein injection with 1-4×10^5 Eμ-Myc lymphoma cells. Mice were treated with 50 mg/kg JQ1, reconstituted in 1 part DMSO to 9 parts 10% (w/v) Hydroxypropyl-β-cyclodextrin (HPBCD; Cyclodextrin Technologies Development Inc., Gainesville, Fla.) In sterile water, or DMSO vehicle control. Mice were dosed once daily (5 days/week) via intra-peritoneal (i.p.) injection, commencing three days post-intravenous inoculation, for a total of 5 weeks therapy or until treatment failure. Tumor-bearing C57BL/6 mice were treated with the following monoclonal antibodies via i.p. injection: Anti-4-1-BB (Anti-CD137, 100 μg, 3H3; BioXCell), anti-PD-1 (100 μg, […]; BioXCell), or control immunoglobulin. (cIg, Rat IgG2a, 2A3, 100 μg; BioXCell). Anti-PD-1 mAb was dosed on days 5, 10, 15, and 20 post tumor transplant. Anti-4-1BB mAb was dosed on days 5, 8, and 11 post tumor transplant.
Cohorts of mice on a C57BL/6 background (n=10 per treatment group) were injected intravenously with 1-5×10^5 Eμ-Myc lymphoma cells three days prior to commencement of daily dosing with JQ1 (50 mg/kg), or DMSO vehicle., via i.p. injection. […]

PD-L2 (CD273) = experiment: PD-L2 expression on tumor cells of treated lymphoma-bearing mice by flow cytometry; type: in vivo, mouse; conditions: single dose 50 mg/kg; peripheral lymph nodes 16 hours after dose; Eμ-Myc lymphoma #4242 in C57BL/6 mice
Procedure: Cell suspensions were washed once with ice-cold flow cytometry buffer (2% FCS and 0.02% NaN3 in PBS) and resuspended in anti-CD16/32 monoclonal antibody (clone 2.4G2) on ice for 30 minutes to block Fc receptors. Cell suspensions were washed once with ice-cold flow cytometry buffer and stained on ice for 30 minutes with the following conjugated antibodies: anti-mouse CD3 (pacific blue, 1:400, clone 17A2), anti-mouse CD4 (APC, 1:400, clone RM4-5), anti-mouse CD8 (PE-Cy7, 1:400, clone 53-6.7), anti-mouse PD-1 (FITC, 1:400, clone J43), anti-mouse PD-L1 (PE, 1:100, clone MIH5), anti-mouse PD-L2 (Biotin, 1:200, clone TY25), anti-human PD-L1 (PE, 1:200, clone 29E.2A3), or anti-human PD-L2 (Biotin, 1:200, clone 24F.10C12). […] Cell suspensions were washed once with ice-cold flow cytometry buffer, resuspended in ice-cold flow cytometry buffer containing 7-AAD (1:1000, BD Bioscience) and analyzed by flow cytometry. Data was collected on a LSR Fortessa flow cytometer (BD Biosciences) and analyzed using FlowJo Software, version 10.0.7 (Tree Star). […]
(§3) A cohort of mice were injected intravenously with 1-5×10^5 Eμ-Myc lymphoma ^#4242 cells and left for 12 days to develop bulky nodal disease. Peripheral lymph nodes were harvested 16 hours following a single dose of JQ1 (50 mg/kg), or DMSO vehicle (n=3 per treatment group) and assessed by flow cytometry. […]

PD-L1 [1] = experiment: PD-L1 expression on tumor cells of treated lymphoma-bearing mice by flow cytometry; type: in vivo, mouse
Procedure: (§4) Cell suspensions were washed once with ice-cold flow cytometry buffer (2% FCS and 0.02% NaN3 in PBS) and resuspended in anti-CD16/32 monoclonal antibody (clone 2.4G2) on ice for 30 minutes to block Fc receptors. […] Cell suspensions were washed once with ice-cold flow cytometry buffer, resuspended in ice-cold flow cytometry buffer containing 7-AAD (1:1000, BD Bioscience) and analyzed by flow cytometry. Data was collected on a LSR Fortessa flow cytometer (BD Biosciences) and analyzed using FlowJo Software, version 10.0.7 (Tree Star). […]
as §3
A cohort of mice were injected intravenously with 1-5×10^5 Eμ-Myc lymphoma ^#4242/Bcl-2 cells and treated daily with JQ1 (50 mg/kg), or DMSO vehicle (n=5 per treatment group). At day 18, peripheral blood was obtained and tumor cells were assessed by flow cytometry. […]

Eμ-Myc lymphoma #299 = experiment: Survival of mice bearing Eμ-Myc lymphoma #299 treated with JQ1 plus anti-PD-1 or anti-4-1BB antibody; type: in vivo, mouse; conditions: JQ1 50 mg/kg i.p., 25 doses, combined with 100 μg anti-PD-1 (days 5, 10, 15, 20) or anti-4-1BB (days 5, 8, 11)
Procedure: as §2
FIGS. 4A and 4B show Kaplan-Meier survival curves representing cohorts of […] (n=6 per treatment group) injected intravenously with 1-5×10^5 Eμ-Myc lymphoma ^#299 cells. […]

PD-L1 [2] = experiment: IFN-γ-inducible PD-L1 expression on multiple myeloma cell line RPMI-8226 by flow cytometry; type: cell-based, human; conditions: RPMI-8226 cells; 500 nM with 100 ng/mL IFN-γ; 24 hours
Procedure: as §1
Cell suspensions were washed once with ice-cold flow cytometry buffer (2% FCS and 0.02% NaN3 in PBS) and resuspended in anti-CD16/32 monoclonal antibody (clone 2.4G2) on ice for 30 minutes to block Fc receptors. […] Cell suspensions were washed once with ice-cold flow cytometry buffer, resuspended in ice-cold flow cytometry buffer containing 7-AAD (1:1000, BD Bioscience) and analyzed by flow cytometry. Data was collected on a LSR Fortessa flow cytometer (BD Biosciences) and analyzed using FlowJo Software, version 10.0.7 (Tree Star).
JQ1 treatment downregulates the IFN-γ-inducible expression of PD-L1 on human myeloma cell lines. […] Representative data are presented as mean MFI of cells cultured and analyzed in triplicate=S.E.M. (*p<0.05, Student's t test).

PD-L1 [3] = experiment: Constitutive PD-L1 expression on Hodgkin lymphoma cell line L540 by flow cytometry; type: cell-based, human; conditions: L540 cells; 24 hours in vitro; indicated concentrations
Procedure: as §1, §4

PD-L1 transcript = experiment: Quantitative real-time PCR of PD-L1 mRNA in Eμ-Myc lymphoma cell lines; type: cell-based, Mus musculus; conditions: 1000 nM; Eμ-Myc lymphoma #4242 and #299 over-expressing Bcl-2; indicated time points
Procedure: Eμ-Myc lymphomas cells were cultured in the presence of JQ1, or DMSO, as described above. RNA was extracted from cell pellets using the Nucleospine® RNA extraction kit (Macherey-Nagel, Bethlehem, Pa.) as per the manufacturer's instructions. cDNA was synthesized according to the manufacturer's instructions (Promega, Sydney, NSW). Quantitative PCR analysis of samples was performed on the 7900HT Fast Real-Time PCR System (Applied Biosystems, Mulgrave, VIC, Australia') with SYBR-green ROX mix (Agilent, Mulgrave, VIC, Australia). GAPDH was used as the murine control genes. Primer sequences were: Mus musculus PD-L1 F: […] (SEQ ID NO: 1) R: […] (SEQ ID NO: 2), Mus musculus GAPDH F: […] (SEQ ID NO: 3) R: […] (SEQ ID NO: 4).
Quantitative real-time-PCR (qPCR) analysis of PD-L1 mRNA levels in Eμ-Myc lymphoma cell lines (FIG. 2G) ^#4242 and (FIG. 2H) ^#299 over-expressing Bcl-2 following treatment with 1000 nM JQ1, or DMSO control, was performed at indicated time points. Transcript levels are presented as fold change compared to DMSO. Data are presented as mean fold-change from 3 separate experiments±S.E.M. (**p<0.01, ***p<0.001, ****p<0.0001, Student's t test).

[4] = Eμ-Myc lymphoma cell line #6066, 1 μM

Structure (SMILES): COc1cc2c(cc1-c1c(C)noc1C)ncc1[nH]c(=O)n([C@H](C)c3ccccn3)c12 [IBET-1.51]
- expression of PD-L1 (CD274) on lymphoma cells (MFI) (PD-L1 (CD274); [4]): downregulate

Structure (SMILES): CCNC(=O)C[C@@H]1N=C(c2ccc(Cl)cc2)c2cc(OC)ccc2-n2c(C)nnc21 [IBET-762]
- expression of PD-L1 (CD274) on lymphoma cells (MFI) (PD-L1 (CD274); [4]): downregulate

Structure (SMILES): Cc1sc2c(c1C)C(c1ccc(Cl)cc1)=N[C@@H](CC(=O)OC(C)(C)C)c1nnc(C)n1-2 [JQ1]
- survival of JQ1-treated immune deficient mice versus JQ1-treated wild type mice (Eμ-Myc lymphoma; C57BL/6.Rag2cγ−/− and C57BL/6.Rag1−/− versus wild type C57BL/6): succumbed to disease significantly earlier
- survival versus DMSO vehicle (Eμ-Myc lymphoma; immune competent (C57BL/6) and immune deficient (Rag2cγ−/−, Rag1−/−) mice, Eμ-Myc lymphoma #4242 and #299): significant survival advantage
- PD-L2 expression on live GFP-positive tumor cells (MFI), acute dose (PD-L2 (CD273)): rapidly downregulates
- PD-L1 expression on circulating tumor cells (MFI), chronic treatment (PD-L1 [1]; 50 mg/kg daily, peripheral blood at day 18, Eμ-Myc lymphoma #4242/Bcl-2 in C57BL/6 mice): express lower levels of PD-L1
- PD-L1 expression on live GFP-positive tumor cells (MFI), acute dose (PD-L1 [1]; single dose 50 mg/kg, peripheral lymph nodes 16 hours after dose, Eμ-Myc lymphoma #4242 in C57BL/6 mice): rapidly downregulates
- anti-tumor response (survival) in combination therapy (Eμ-Myc lymphoma #299): Promotes Curative Anti-Tumor Responses
- IFN-γ-inducible expression of PD-L1 (MFI) (PD-L1 [2]): downregulates
- constitutive expression of PD-L1 (MFI) (PD-L1 [3]): downregulates
- PD-L1 mRNA level (fold change compared to DMSO) (PD-L1 transcript): rapidly downregulates
- expression of PD-L1 (CD274) on lymphoma cells (MFI) (PD-L1 (CD274); Eμ-Myc lymphoma #4242 and #299 over-expressing Bcl-2, indicated concentrations): downregulates
- time course of PD-L1 downregulation (PD-L1 (CD274); Eμ-Myc lymphoma cell line #6066, 500 nM, indicated time points): time-dependent
- expression of PD-L1 (CD274) on lymphoma cells (MFI) (PD-L1 (CD274); [4]): downregulate

Structure (SMILES): COc1cc(OC)c2c(=O)[nH]c(-c3cc(C)c(OCCO)c(C)c3)nc2c1 [RVX-208]
- expression of PD-L1 (CD274) on lymphoma cells (MFI) (PD-L1 (CD274); Eμ-Myc lymphoma cell line #6066, 10 μM): downregulate

Structure (SMILES): Cc1sc2c(c1C)C(c1ccc(Cl)cc1)=N[C@@H](CC(=O)Nc1ccc(O)cc1)c1nnc(C)n1-2 [Y803]
- expression of PD-L1 (CD274) on lymphoma cells (MFI) (PD-L1 (CD274); [4]): downregulate

Structure (SMILES): Cc1sc2c(c1C)C(c1ccc(Cl)cc1)=N[C@@H](CC(=O)NCCCCNC(=O)COc1cccc3c1C(=O)N(C1CCC(=O)NC1=O)C3=O)c1nnc(C)n1-2 (some centres unmarked) [dBET1]
- expression of PD-L1 (CD274) on lymphoma cells (MFI) (PD-L1 (CD274); [4]): downregulate

From US20190192532A1, “COMBINATION THERAPY OF BROMODOMAIN INHIBITORS AND CHECKPOINT BLOCKADE” (DANA-FARBER CANCER INSTITUTE, priority 2015, published 2019)
